Assay results reported in patent US9181258B2, “Substituted 3,4-dihydropyrrolo[1,2-a]pyrazin-1(2H)-ones as protein kinase inhibitors” (NERVIANO MEDICAL SCIENCES S.R.L., priority 2011, dated 2015).
pIC50: −log10 of the molar value. Where a name gives a salt, the structure may show the parent alone. Read-outs that look alike come from different tables or passages of the source.

Experiments:
MV-4-11 cells = assay: In vitro cell proliferation assay (CellTiter-Glo), MV-4-11; format: cell-based
Procedure: In Vitro Cell Proliferation Assay
MV-4-11 (biphenotypic B myelomonocytic leukemia) cell line was obtained from ATCC.
Media for MV-4-11 cell line contained RPMI 1640 or EMEM plus 2 mM Glutamine and 10% Fetal bovine serum.
BaF3-PIM1 and MV-4-11 cells were seeded at 125 cells/well and 1250 cells/well respectively in a 384-well white plates in complete medium and treated with compounds dissolved in 0.1% DMSO, 24 h after seeding.
The cells were incubated at 37° C. and 5% CO2 and after 72 hours the plates were processed using CellTiter-Glo assay (Promega) following the manufacturer's instruction.
CellTiter-Glo was a homogenous method based on the quantification of the ATP present, an indicator of metabolitically active cells. ATP was quantified using a system based on luciferase and D-luciferin resulting into light generation. The luminescent signal was proportional to the number of cells present in culture.
Briefly 25 μl/well reagent solution were added to each wells and after 5 minutes shacking microplates were red by Envision (PerkinElmer) luminometer. The luminescent signal was proportional to the number of cells present in culture.
Inhibitory activity was evaluated comparing treated versus control data using Assay Explorer (MDL) program. IC50 was calculated using sigmoidal interpolation curve.

human PIM2 = human PIM2 (Homo sapiens (Human), UniProt Q9P1W9); assay: PIM2 kinase inhibition assay: Dowex technique; format: biochemical; conditions: ATP 4 μM, Aktide 5 μM, enzyme 1.5 nM; read-out: PIM-2 IC50
Sequence of human PIM2 (Q9P1W9 whole entry): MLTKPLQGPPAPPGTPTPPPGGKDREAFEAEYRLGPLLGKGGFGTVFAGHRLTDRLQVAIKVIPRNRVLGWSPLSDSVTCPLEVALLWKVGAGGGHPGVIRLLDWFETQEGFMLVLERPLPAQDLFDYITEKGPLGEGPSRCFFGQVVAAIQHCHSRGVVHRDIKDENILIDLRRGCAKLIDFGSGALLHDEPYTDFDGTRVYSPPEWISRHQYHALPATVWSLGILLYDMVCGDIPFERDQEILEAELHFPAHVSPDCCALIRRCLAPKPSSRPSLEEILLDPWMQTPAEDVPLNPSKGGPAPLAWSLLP
In short: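 Full-length human PIM2 (1.5 nM) phosphorylated Aktide (5 μM) with 4 μM ATP plus 1 nM 33P-γ-ATP (final concentrations). Buffer: 50 mM HEPES pH 7.5, 1 mM MgCl2, 1 mM DTT, 3 μM Na3VO4, 0.2 mg/mL BSA. Radiolabel incorporation was read by the robotized Dowex method used for PIM1.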

human PIM1 = human PIM1 (Homo sapiens (Human), UniProt P11309); assay: Biochemical assay for inhibitors of PIM1 kinase activity (trans-phosphorylation, Dowex technique); conditions: ATP 200 μM, Aktide 25 μM, enzyme 1 nM; read-out: PIM-1 IC50
Sequence of human PIM1 (P11309 whole entry): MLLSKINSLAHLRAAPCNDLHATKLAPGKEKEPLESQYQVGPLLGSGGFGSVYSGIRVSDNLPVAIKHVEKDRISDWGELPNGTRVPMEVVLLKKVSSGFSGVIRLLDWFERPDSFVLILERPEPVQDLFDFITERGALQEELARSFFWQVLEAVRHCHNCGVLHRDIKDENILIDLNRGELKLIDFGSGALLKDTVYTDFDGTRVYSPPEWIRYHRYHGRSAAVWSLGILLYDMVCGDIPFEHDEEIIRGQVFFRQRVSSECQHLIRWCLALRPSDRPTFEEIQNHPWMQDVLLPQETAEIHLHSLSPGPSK
In short: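 Full-length human PIM1 (1 nM) phosphorylates Aktide (25 μM) with 200 μM ATP plus 6 nM ^33P-γ-ATP in HEPES 50 mM pH 7.5, 10 mM MgCl2, 1 mM DTT, 3 μM NaVO3, 0.2 mg/mL BSA. Unreacted ATP captured on Dowex resin, supernatant β-counted; IC50 from ten-point 1:3 dilution sigmoidal fit.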

BaF3-PIM1 cells = assay: In vitro cell proliferation assay (CellTiter-Glo), BaF3-PIM1; format: cell-based; conditions: 72 hours

SMILES | pIC50 (MV-4-11 cells; Homo sapiens, MV4-11, 72 hours) | pIC50 (human PIM2) | pIC50 (human PIM1) | pIC50 (BaF3-PIM1 cells) | pIC50 (MV-4-11 cells; 72 hours, read-out: MV4-11 IC50)
Cc1cc(-c2c(-c3cccc(OC(F)(F)F)c3)cc3n2[C@@H](CCN)CNC3=O)ccc1F [Compound 122, (4S)-4-(2-aminoethyl)-6-(4-fluoro-3-methylphenyl)-7-[3-(trifluoromethoxy)phenyl]-3,4-dihydropyrrolo[1,2-a]pyrazin-1(2H)-one hydrochloride] | 6.11 | 7.07 | 7.77 | 6.78 | –
CSc1ccc(-c2c(-c3cccc(OC(F)(F)F)c3)cc3n2[C@@H](CCN)CNC3=O)cc1 [Compound 123, (4S)-4-(2-aminoethyl)-6-[4-(methylsulfanyl)phenyl]-7-[3-(trifluoromethoxy)phenyl]-3,4-dihydropyrrolo[1,2-a]pyrazin-1(2H)-one hydrochloride] | 6.14 | 7.35 | 7.80 | 7.05 | –
CC(C)(C)c1ccc(-c2c(-c3cccc(OC(F)(F)F)c3)cc3n2[C@@H](CCN)CNC3=O)cc1 [Compound 124, (4S)-4-(2-aminoethyl)-6-(4-tert-butylphenyl)-7-[3-(trifluoromethoxy)phenyl]-3,4-dihydropyrrolo[1,2-a]pyrazin-1(2H)-one hydrochloride] | 6.33 | 6.80 | 7.62 | 6.89 | –
NCC[C@H]1CNC(=O)c2cc(-c3cccc(OC(F)(F)F)c3)c(-c3cccc(C(F)(F)F)c3)n21 [Compound 125, (4S)-4-(2-aminoethyl)-7-[3-(trifluoromethoxy)phenyl]-6-[3-(trifluoromethyl)phenyl]-3,4-dihydropyrrolo[1,2-a]pyrazin-1(2H)-one hydrochloride] | 6.03 | 7.01 | 7.36 | 6.52 | –
NCC[C@H]1CNC(=O)c2cc(-c3cccc(OC(F)(F)F)c3)c(-c3cccc(Cl)c3)n21 [Compound 126, (4S)-4-(2-aminoethyl)-6-(3-chlorophenyl)-7-[3-(trifluoromethoxy)phenyl]-3,4-dihydropyrrolo[1,2-a]pyrazin-1(2H)-one hydrochloride] | 6.11 | 7.68 | 7.89 | 6.90 | –
CCOc1ccc(-c2c(-c3cccc(OC(F)(F)F)c3)cc3n2[C@@H](CCN)CNC3=O)cc1F [Compound 127, (4S)-4-(2-aminoethyl)-6-(4-ethoxy-3-fluorophenyl)-7-[3-(trifluoromethoxy)phenyl]-3,4-dihydropyrrolo[1,2-a]pyrazin-1(2H)-one hydrochloride] | 6.36 | 7.62 | 7.92 | 6.90 | –
COc1c(C)cc(-c2c(-c3cccc(OC(F)(F)F)c3)cc3n2[C@@H](CCN)CNC3=O)cc1C [Compound 128, 4S)-4-(2-aminoethyl)-6-(4-methoxy-3,5-dimethyl phenyl)-7-[3-(trifluoromethoxy)phenyl]-3,4-dihydropyrrolo[1,2-a]pyrazin-1(2H)-one hydrochloride] | – | 7.49 | 8.10 | 6.76 | 6.33
COc1ccc(-c2c(-c3cccc(OC(F)(F)F)c3)cc3n2[C@@H](CCN)CNC3=O)cc1Cl [Compound 129, (4S)-4-(2-aminoethyl)-6-(3-chloro-4-methoxyphenyl)-7-[3-(trifluoromethoxy)phenyl]-3,4-dihydropyrrolo[1,2-a]pyrazin-1(2H)-one hydrochloride] | 6.15 | 7.92 | 8.52 | 6.70 | –
CN(C)Cc1ccc(-c2c(-c3cccc(OC(F)(F)F)c3)cc3n2[C@@H](CCCN)CNC3=O)cc1 [Compound 134, (4S)-4-(3-aminopropyl)-6-{4-[(dimethylamino)methyl]phenyl}-7-[3-(trifluoromethoxy)phenyl]-3,4-dihydropyrrolo[1,2-a]pyrazin-1(2H)-one dihydrochloride] | 5.15 | 7.18 | 8.70 | 5.36 | –
CC(=O)NCC[C@H]1CNC(=O)c2cc(-c3cccc(OC(F)(F)F)c3)c(-c3ccccc3)n21 [Compound 142, N-(2-{(4S)-1-oxo-6-phenyl-7-[3-(trifluoromethoxy)phenyl]-1,2,3,4-tetrahydropyrrolo[1,2-a]pyrazin-4-yl}ethyl)acetamide] | 5.31 | 6.76 | 7.47 | 6.31 | –
